15 molecules from patent US20240158418A1 (C4 Therapeutics, Inc., priority 2021, published 2024) can be followed below.

SMILES strings stand for the structures.

For one assay, the target named is T1, EGFR L858R-T790M (Homo sapiens, UniProt P00533, L858R/T790M).
T1 construct: NCI-H1975 (harboring EGFR heterozygous L858R-T790M mutations); host or cells: NCI-H1975
T1 sequence (P00533 25-1210 T790M/L858R): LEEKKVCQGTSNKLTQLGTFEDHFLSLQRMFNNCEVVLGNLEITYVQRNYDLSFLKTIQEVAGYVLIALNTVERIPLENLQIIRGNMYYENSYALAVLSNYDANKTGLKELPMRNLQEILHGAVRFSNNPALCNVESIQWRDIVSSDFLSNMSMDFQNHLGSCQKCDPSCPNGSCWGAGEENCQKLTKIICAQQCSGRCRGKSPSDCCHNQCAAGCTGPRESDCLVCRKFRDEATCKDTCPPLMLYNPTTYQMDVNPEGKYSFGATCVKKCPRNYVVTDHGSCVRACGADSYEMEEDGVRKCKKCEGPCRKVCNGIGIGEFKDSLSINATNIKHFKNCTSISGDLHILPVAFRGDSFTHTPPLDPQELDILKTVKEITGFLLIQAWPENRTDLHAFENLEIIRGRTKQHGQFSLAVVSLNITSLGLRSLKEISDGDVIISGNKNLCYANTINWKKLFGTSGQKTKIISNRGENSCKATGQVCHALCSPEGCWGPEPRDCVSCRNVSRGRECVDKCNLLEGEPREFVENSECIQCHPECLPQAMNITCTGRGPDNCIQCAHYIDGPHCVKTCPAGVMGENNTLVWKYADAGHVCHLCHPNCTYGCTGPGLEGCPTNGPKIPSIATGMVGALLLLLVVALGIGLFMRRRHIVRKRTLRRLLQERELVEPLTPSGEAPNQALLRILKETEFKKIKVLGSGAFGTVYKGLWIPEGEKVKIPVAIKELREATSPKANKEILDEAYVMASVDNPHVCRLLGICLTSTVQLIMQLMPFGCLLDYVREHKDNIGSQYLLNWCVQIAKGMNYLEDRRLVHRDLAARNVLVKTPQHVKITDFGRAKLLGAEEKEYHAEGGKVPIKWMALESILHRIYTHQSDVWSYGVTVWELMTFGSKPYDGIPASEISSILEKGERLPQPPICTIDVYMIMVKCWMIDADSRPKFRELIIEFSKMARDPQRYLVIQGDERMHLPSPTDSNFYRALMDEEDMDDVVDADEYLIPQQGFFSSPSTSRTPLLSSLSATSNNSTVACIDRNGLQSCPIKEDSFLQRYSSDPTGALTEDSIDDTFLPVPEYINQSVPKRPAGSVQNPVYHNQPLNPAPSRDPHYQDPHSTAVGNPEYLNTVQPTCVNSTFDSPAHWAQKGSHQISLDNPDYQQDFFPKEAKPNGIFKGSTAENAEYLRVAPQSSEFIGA
Put plainly: EGFR degradation, Total EGFR (L858R-specific) HTRF, NCI-H1975. To be noted: Table 9A; NCI-H1975 cells, 6 hours, Total EGFR HTRF; read-out: H1975 EGFR DC50. Format: cell-based. The procedure, abridged: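 Cells in RPMI 1640 + 10% FBS treated 6 h at 37°C with compound, 11-point half-log titration from 10 μM top, in duplicate. pY1068 and total EGFR read by HTRF (pan-EGFR antibody for wild-type A431; L858R-specific for mutants); IC50 for phospho inhibition, DC50 for 50% degradation.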
As a reminder, the DC50 is the concentration at which degradation of the target reaches its halfway point. In the case of `O=C1CCC(Oc2ccc(N3CCN(CC(=O)N4CCC(NC(=O)c5ccc(C#Cc6cc(F)c7c(c6)C(=O)N(C(C(=O)Nc6nccs6)c6ncn8c6CCC8)C7)cn5)CC4)CC3)cc2)C(=O)N1` (stereo not drawn) [Compound 51, 5-[2-[2-[1-(6,7-dihydro-5H-pyrrolo[1,2-c]imidazol-1-yl)-2-oxo-2-(thiazol-2-ylamino)ethyl]-7-fluoro-3-oxo-isoindolin-5-yl]ethynyl]-N-[1-[2-[4-[4-[(2,6-dioxo-3-piperidyl)oxy]phenyl]piperazin-1-yl]acetyl]-4-piperidyl]pyridine-2-carboxamide], the DC50 was below 50 nM.

The same assay, now with this note: Table 9B; NCI-H1975 cells, 6 hours, Total EGFR HTRF; read-out: H1975 EGFR DC50.
`Cn1nc(N2CCC(=O)NC2=O)c2ccc(C3CCN(CC(=O)N4CCC(n5cc(-c6cc(F)c7c(c6)C(=O)N(C(C(=O)Nc6nccs6)c6ncn8c6CCC8)C7)cn5)CC4)CC3(F)F)cc21` (stereo not drawn) [Compound 105, 2-(6,7-dihydro-5H-pyrrolo[1,2-c]imidazol-1-yl)-2-(6-(1-(1-(2-(4-(3-(2,4-dioxotetrahydropyrimidin-1(2H)-yl)-1-methyl-1H-indazol-6-yl)-3,3-difluoropiperidin-1-yl)acetyl)piperidin-4-yl)-1H-pyrazol-4-yl)-4-fluoro-1-oxoisoindolin-2-yl)-N-(thiazol-2-yl)acetamide]: the DC50 is below 50 nM.

Take `O=C1CC[C@@H](Nc2ccc(N3CCC(O)(CC(=O)N4CC5(C4)CN(c4ccc(-c6cc(F)c7c(c6)C(=O)N(C(C(=O)Nc6nccs6)c6ncn8c6CCC8)C7)cn4)C5)CC3)c(F)c2)C(=O)N1` (stereo partly drawn) [Compound 111, 2-(6,7-dihydro-5H-pyrrolo[1,2-c]imidazol-1-yl)-2-(6-(6-(6-(2-(1-(4-(((R)-2,6-dioxopiperidin-3-yl)amino)-2-fluorophenyl)-4-hydroxypiperidin-4-yl)acetyl)-2,6-diazaspiro[3.3]heptan-2-yl)pyridin-3-yl)-4-fluoro-1-oxoisoindolin-2-yl)-N-(thiazol-2-yl)acetamide]: the DC50 was below 50 nM.

In the case of `O=C1CCC(Nc2ccc(N3CCC(O)(CC(=O)N4CCC5(CC4)CN(c4ccc(-c6cc(F)c7c(c6)C(=O)N(C(C(=O)Nc6nccs6)c6ncn8c6CCC8)C7)cc4)C5)CC3)c(F)c2)C(=O)N1` (stereo not drawn) [Compound 114, 2-(6,7-dihydro-5H-pyrrolo[1,2-c]imidazol-1-yl)-2-[6-[4-[7-[2-[1-[4-[(2,6-dioxo-3-piperidyl)amino]-2-fluoro-phenyl]-4-hydroxy-4-piperidyl]acetyl]-2,7-diazaspiro[3.5]nonan-2-yl]phenyl]-4-fluoro-1-oxo-isoindolin-2-yl]-N-thiazol-2-yl-acetamide], the DC50 is below 50 nM.

In the case of `O=C1CCC(Nc2ccc(C3CCN(C(=O)CC4CCN(c5ccc(-c6cc(F)c7c(c6)C(=O)N(C(C(=O)Nc6nccs6)c6ncn8c6CCC8)C7)cc5)CC4)CC3)c(F)c2)C(=O)N1` (stereo not drawn) [Compound 86, 2-(6,7-dihydro-5H-pyrrolo[1,2-c]imidazol-1-yl)-2-[6-[4-[4-[2-[4-[4-[(2,6-dioxo-3-piperidyl)amino]-2-fluoro-phenyl]-1-piperidyl]-2-oxo-ethyl]-1-piperidyl]phenyl]-4-fluoro-1-oxo-isoindolin-2-yl]-N-thiazol-2-yl-acetamide], the DC50 is 50 to 150 nM.

Regarding `Cn1nc(N2CCC(=O)NC2=O)c2ccc(C3CCN(CC(=O)N4CC5(C4)CN(c4ccc(-c6cc(F)c7c(c6)C(=O)N(C(C(=O)Nc6nccs6)c6ncn8c6CCC8)C7)cc4)C5)CC3F)cc21` (stereo not drawn) [Compound 133, 2-(6,7-dihydro-5H-pyrrolo[1,2-c]imidazol-1-yl)-2-[6-[4-[2-[2-[4-[3-(2,4-dioxohexahydropyrimidin-1-yl)-1-methyl-indazol-6-yl]-3-fluoro-1-piperidyl]acetyl]-2,6-diazaspiro[3.3]heptan-6-yl]phenyl]-4-fluoro-1-oxo-isoindolin-2-yl]-N-thiazol-2-yl-acetamide], the DC50 was below 50 nM.

As for `NC1(CC(=O)N2CC3(C2)CN(c2ccc(-c4cc(F)c5c(c4)C(=O)N(C(C(=O)Nc4nccs4)c4ncn6c4CCC6)C5)cc2)C3)CCN(c2ccc(NC3CCC(=O)NC3=O)cc2F)CC1` (stereo not drawn) [Compound 162, 2-[6-[4-[2-[2-[4-amino-1-[4-[(2,6-dioxo-3-piperidyl)amino]-2-fluoro-phenyl]-4-piperidyl]acetyl]-2,6-diazaspiro[3.3]heptan-6-yl]phenyl]-4-fluoro-1-oxo-isoindolin-2-yl]-2-(6,7-dihydro-5H-pyrrolo[1,2-c]imidazol-1-yl)-N-thiazol-2-yl-acetamide], the DC50 was below 50 nM.

For the molecule `O=C1CCC(Nc2ccc(N3CCC(O)(CC(=O)N4CCC5(CC4)CN(c4ccc(-c6cc(F)c7c(c6)C(=O)N(C(C(=O)Nc6nccs6)c6ncn8c6CCC8)C7)cc4)C5)CC3)c(Cl)c2)C(=O)N1` (single isomer, unassigned; isomer 1) [Compound 138, 2-[6-[4-[7-[2-[1-[2-chloro-4-[[2,6-dioxo-3-piperidyl]amino]phenyl]-4-hydroxy-4-piperidyl]acetyl]-2,7-diazaspiro[3.5]nonan-2-yl]phenyl]-4-fluoro-1-oxo-isoindolin-2-yl]-2-(6,7-dihydro-5H-pyrrolo[1,2-c]imidazol-1-yl)-N-thiazol-2-yl-acetamide, isomer 1], the DC50 is below 50 nM.

In the case of `O=C1CC[C@@H](Nc2ccc(N3CCC(O)(CC(=O)N4CCC(NC(=O)c5ccc(C#Cc6cc(F)c7c(c6)C(=O)N(C(C(=O)Nc6nccs6)c6ncn8c6C[C@@H](F)C8)C7)cn5)CC4)CC3)c(F)c2)C(=O)N1` (stereo partly drawn) [Compound 108, N-(1-(2-(1-(4-(((R)-2,6-dioxopiperidin-3-yl)amino)-2-fluorophenyl)-4-hydroxypiperidin-4-yl)acetyl)piperidin-4-yl)-5-((7-fluoro-2-(1-((R)-6-fluoro-6,7-dihydro-5H-pyrrolo[1,2-c]imidazol-1-yl)-2-oxo-2-(thiazol-2-ylamino)ethyl)-3-oxoisoindolin-5-yl)ethynyl)picolinamide], the DC50 was below 50 nM.

Regarding `O=C1CCC(Nc2ccc(N3CCC(O)(CC(=O)N4CC5(C4)CN(c4ccc(-c6cc(F)c7c(c6)C(=O)N(C(C(=O)Nc6nccs6)c6ncn8c6CCC8)C7)cc4)C5)CC3)c(F)c2)C(=O)N1` (stereo not drawn) [Compound 89, 2-(6,7-dihydro-5H-pyrrolo[1,2-c]imidazol-1-yl)-2-(6-(4-(6-(2-(1-(4-((2,6-dioxopiperidin-3-yl)amino)-2-fluorophenyl)-4-hydroxypiperidin-4-yl)acetyl)-2,6-diazaspiro[3.3]heptan-2-yl)phenyl)-4-fluoro-1-oxoisoindolin-2-yl)-N-(thiazol-2-yl)acetamide], the DC50 was below 50 nM.

`Cn1nc(N2CCC(=O)NC2=O)c2ccc(N3CCC(O)(CC(=O)N4CC5(C4)CN(c4ccc(-c6cc(F)c7c(c6)C(=O)N(C(C(=O)Nc6nccs6)c6ncn8c6CCC8)C7)cc4)C5)CC3)cc21` (stereo not drawn) [Compound 109, 2-(6,7-dihydro-5H-pyrrolo[1,2-c]imidazol-1-yl)-2-(6-(4-(6-(2-(1-(3-(2,4-dioxotetrahydropyrimidin-1(2H)-yl)-1-methyl-1H-indazol-6-yl)-4-hydroxypiperidin-4-yl)acetyl)-2,6-diazaspiro[3.3]heptan-2-yl)phenyl)-4-fluoro-1-oxoisoindolin-2-yl)-N-(thiazol-2-yl)acetamide]: the DC50 was below 50 nM.

As for `Cn1nc(N2CCC(=O)NC2=O)c2ccc(C3CCN(C(=O)CC4CC5(C4)CN(c4ccc(-c6cc(F)c7c(c6)C(=O)N(C(C(=O)Nc6nccs6)c6ncn8c6CCC8)C7)cc4)C5)CC3(F)F)cc21` (stereo not drawn) [Compound 102, 2-(6,7-dihydro-5H-pyrrolo[1,2-c]imidazol-1-yl)-2-(6-(4-(6-(2-(4-(3-(2,4-dioxotetrahydropyrimidin-1(2H)-yl)-1-methyl-1H-indazol-6-yl)-3,3-difluoropiperidin-1-yl)-2-oxoethyl)-2-azaspiro[3.3]heptan-2-yl)phenyl)-4-fluoro-1-oxoisoindolin-2-yl)-N-(thiazol-2-yl)acetamide], the DC50 was below 50 nM.

In the case of `O=C1CCC(Nc2cc(F)c(N3CCC(O)(CC(=O)N4CC5(C4)CN(c4ccc(-c6cc(F)c7c(c6)C(=O)N(C(C(=O)Nc6nccs6)c6ncn8c6CCC8)C7)cc4)C5)CC3)c(Cl)c2)C(=O)N1` (single isomer, unassigned; isomer 1) [Compound 145, 2-[6-[4-[2-[2-[1-[2-chloro-4-[[2,6-dioxo-3-piperidyl]amino]-6-fluoro-phenyl]-4-hydroxy-4-piperidyl]acetyl]-2,6-diazaspiro[3.3]heptan-6-yl]phenyl]-4-fluoro-1-oxo-isoindolin-2-yl]-2-(6,7-dihydro-5H-pyrrolo[1,2-c]imidazol-1-yl)-N-thiazol-2-yl-acetamide, isomer 1], the DC50 was 50 to 150 nM.

Turning to `O=C1CC[C@H](Nc2ccc(N3CCC(O)(CC(=O)N4CCC(n5cc(-c6cc(F)c7c(c6)C(=O)N(C(C(=O)Nc6nccs6)c6ncn8c6CCC8)C7)cn5)CC4)CC3)c(F)c2)C(=O)N1` (stereo partly drawn) [Compound 142, 2-(6,7-dihydro-5H-pyrrolo[1,2-c]imidazol-1-yl)-2-[6-[1-[1-[2-[1-[4-[[(3S)-2,6-dioxo-3-piperidyl]amino]-2-fluoro-phenyl]-4-hydroxy-4-piperidyl]acetyl]-4-piperidyl]pyrazol-4-yl]-4-fluoro-1-oxo-isoindolin-2-yl]-N-thiazol-2-yl-acetamide], the DC50 is below 50 nM.

In the case of `Cn1nc(N2CCC(=O)NC2=O)c2ccc(C3CCN(C(=O)CN4CC5(C4)CN(c4ccc(-c6cc(F)c7c(c6)C(=O)N(C(C(=O)Nc6nccs6)c6ncn8c6CCC8)C7)cn4)C5)CC3(F)F)cc21` (stereo not drawn) [Compound 118, 2-(6,7-dihydro-5H-pyrrolo[1,2-c]imidazol-1-yl)-2-(6-(6-(6-(2-(4-(3-(2,4-dioxotetrahydropyrimidin-1(2H)-yl)-1-methyl-1H-indazol-6-yl)-3,3-difluoropiperidin-1-yl)-2-oxoethyl)-2,6-diazaspiro[3.3]heptan-2-yl)pyridin-3-yl)-4-fluoro-1-oxoisoindolin-2-yl)-N-(thiazol-2-yl)acetamide], the DC50 is below 50 nM.
